The source of these data is US8501936B2 (priority 2009, dated 2013).

Structures are written as SMILES.

The target in assay [1] is human JAK2 (Homo sapiens (Human), UniProt O60674). The note with it: read-out: JAK2 IC50.
The target of assay [2] is human FAK (Homo sapiens (Human), UniProt Q05397). As to conditions: read-out: FAK IC50.
Sequence of human FAK (Q05397 whole entry): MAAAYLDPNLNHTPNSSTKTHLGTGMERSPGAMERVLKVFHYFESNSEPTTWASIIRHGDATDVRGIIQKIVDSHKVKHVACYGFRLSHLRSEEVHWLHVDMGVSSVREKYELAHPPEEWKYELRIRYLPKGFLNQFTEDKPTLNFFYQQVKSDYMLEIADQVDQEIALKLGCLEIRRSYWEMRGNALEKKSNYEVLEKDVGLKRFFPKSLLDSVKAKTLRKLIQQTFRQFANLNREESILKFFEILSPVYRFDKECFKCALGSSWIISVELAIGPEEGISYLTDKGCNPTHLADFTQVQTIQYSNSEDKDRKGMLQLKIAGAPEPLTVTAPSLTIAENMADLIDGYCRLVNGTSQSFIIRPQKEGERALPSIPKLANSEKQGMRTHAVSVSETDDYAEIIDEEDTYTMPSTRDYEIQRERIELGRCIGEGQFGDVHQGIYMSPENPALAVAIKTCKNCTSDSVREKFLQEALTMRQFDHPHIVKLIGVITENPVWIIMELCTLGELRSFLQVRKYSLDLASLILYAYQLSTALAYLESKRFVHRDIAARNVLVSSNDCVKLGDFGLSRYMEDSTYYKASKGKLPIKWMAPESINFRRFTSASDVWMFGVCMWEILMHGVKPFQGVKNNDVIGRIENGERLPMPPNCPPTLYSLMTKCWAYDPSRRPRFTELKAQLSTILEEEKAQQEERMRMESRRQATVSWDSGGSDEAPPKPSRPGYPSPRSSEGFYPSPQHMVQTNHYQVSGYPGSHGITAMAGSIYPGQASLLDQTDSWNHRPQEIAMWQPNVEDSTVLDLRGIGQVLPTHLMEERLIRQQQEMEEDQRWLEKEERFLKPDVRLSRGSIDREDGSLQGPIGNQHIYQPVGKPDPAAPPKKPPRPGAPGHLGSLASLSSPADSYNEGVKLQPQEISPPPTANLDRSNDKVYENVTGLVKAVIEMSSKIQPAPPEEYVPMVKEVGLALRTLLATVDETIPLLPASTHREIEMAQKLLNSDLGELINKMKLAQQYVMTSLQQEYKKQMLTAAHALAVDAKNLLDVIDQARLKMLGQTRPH
Procedure: The ability of compounds to inhibit the kinase activity of baculovirus-expressed human FAK and PYK2 was measured using the 96-well plate TRF assay system described above for JAK2. […] For the FAK kinase assay, the reaction mixture (total volume=100 μL/well) contained 20 mM HEPES (pH 7.2), 10 μM ATP, 5 mM MgCl2, 0.5 mM DTT, 0.1% BSA, and test compound (diluted in DMSO; 2.5% DMSO final in assay). For PYK2, the 100 μL assay solution consisted of 20 mM HEPES (pH 7.2), 3 μM ATP, 5 mM MnCl2, 0.1% BSA, and test compound (diluted in DMSO; 2.5% DMSO final in assay). Enzyme (10 ng/mL FAK or 25 ng/mL PYK2) was added and the reaction was allowed to proceed at room temperature for 30 min. Detection of the phosphorylated product was performed by adding 100 μL/well of Eu—N1 labeled PY100 antibody diluted 1:75000 in 0.25% BSA in TBS-T (PerkinElmer #AD0041). […] Inhibition data were analyzed using ActivityBase and IC50 curves generated using XLFit.

Sequence of human JAK2 (O60674 815-1132): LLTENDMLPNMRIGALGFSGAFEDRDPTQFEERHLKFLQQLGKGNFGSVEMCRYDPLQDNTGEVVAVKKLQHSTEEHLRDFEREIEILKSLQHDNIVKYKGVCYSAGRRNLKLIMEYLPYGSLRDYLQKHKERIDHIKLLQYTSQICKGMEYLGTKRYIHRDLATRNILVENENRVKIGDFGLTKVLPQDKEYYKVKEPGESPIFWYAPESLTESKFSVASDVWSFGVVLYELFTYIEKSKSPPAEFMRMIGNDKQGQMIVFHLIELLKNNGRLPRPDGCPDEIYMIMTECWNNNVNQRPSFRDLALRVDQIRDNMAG

With `CN1CCN(c2ccc(Nc3nc4c(NCc5cccc(S(C)(=O)=O)c5)cccn4n3)cc2)CC1` [Example 160, N(8)-(3-Methanesulfonyl-benzyl)-N(2)-[4-(4-methyl-piperazin-1-yl)-phenyl]-[1,2,4]triazolo[1,5-a]pyridine-2,8-diamine], the IC50 came out at 262 nM in assay [1] and 10000 nM in assay [2].
Consider `CN1CCN(c2cccc(Nc3nc4c(NCc5cccc(S(C)(=O)=O)c5)cccn4n3)c2)CC1` [Example 161, N(8)-(3-Methanesulfonyl-benzyl)-N(2)-[3-(4-methyl-piperazin-1-yl)-phenyl]-[1,2,4]triazolo[1,5-a]pyridine-2,8-diamine], for which the IC50 in assay [1] was 399 nM; in assay [2], 10000 nM.
For `CN1CCC(c2ccc(Nc3nc4c(NCc5cccc(S(C)(=O)=O)c5)cccn4n3)cc2)CC1` [Example 162, N(8)-(3-Methanesulfonyl-benzyl)-N(2)-[4-(1-methyl-piperidin-4-yl)-phenyl]-[1,2,4]triazolo[1,5-a]pyridine-2,8-diamine], in that order: 328 nM and 10000 nM.
Taken in the same sequence, the figures for `CN1CCN(c2ccc(Nc3nc4c(NCC5CCN(C(=O)OC(C)(C)C)C5)cccn4n3)cc2)CC1` (centres unmarked) [Example 163, 3-({2-[4-(4-Methyl-piperazin-1-yl)-phenylamino]-[1,2,4]triazolo[1,5-a]pyridin-8-ylamino}-methyl)-pyrrolidine-1-carboxylic acid tert-butyl ester] were 98 nM and 10000 nM.
Consider `CN1CCN(c2ccc(Nc3nc4c(Nc5ccccc5CS(C)(=O)=O)cccn4n3)cc2)CC1` [Example 164, N(8)-(2-Methanesulfonylmethyl-phenyl)-N(2)-[4-(4-methyl-piperazin-1-yl)-phenyl]-[1,2,4]triazolo[1,5-a]pyridine-2,8-diamine], for which the IC50 in assay [1] turned out to be 22.1 nM; in assay [2], 1280 nM.
For `CN1CCC(c2ccc(Nc3nc4c(Nc5ccccc5CS(C)(=O)=O)cccn4n3)cc2)CC1` [Example 165, N(8)-(2-Methanesulfonylmethyl-phenyl)-N(2)-[4-(1-methyl-piperidin-4-yl)-phenyl]-[1,2,4]triazolo[1,5-a]pyridine-2,8-diamine], in that order: 39.9 nM and 2000 nM.
For `CN1Cc2ccc(Nc3nc4c(NCc5cccnc5N(C)S(C)(=O)=O)cccn4n3)cc2C1` [Example 166, N-Methyl-N-(3-{[2-(2-methyl-2,3-dihydro-1H-isoindol-5-ylamino)-[1,2,4]triazolo[1,5-a]pyridin-8-ylamino]-methyl}-pyridin-2-yl)-methanesulfonamide], in that order: 12.8 nM and 48.1 nM.
For `CN1Cc2ccc(Nc3nc4c(NCc5ccccc5N(C)S(C)(=O)=O)cccn4n3)cc2C1` [Example 167, N-Methyl-N-(2-{[2-(2-methyl-2,3-dihydro-1H-isoindol-5-ylamino)-[1,2,4]triazolo[1,5-a]pyridin-8-ylamino]-methyl}-phenyl)-methanesulfonamide], in that order: 9.19 nM and 17.8 nM.
In the case of `CN1Cc2ccc(Nc3nc4c(-c5ccc(S(C)(=O)=O)cc5)cccn4n3)cc2C1` [Example 168, [8-(4-Methanesulfonyl-phenyl)-[1,2,4]triazolo[1,5-a]pyridin-2-yl]-(2-methyl-2,3-dihydro-1H-isoindol-5-yl)-amine], the IC50 in assay [1] is 0.73 nM; in assay [2], 816 nM.
For the molecule `CN1CCN(c2ccc(Nc3nc4c(NCc5cccc(N(C)S(C)(=O)=O)c5)cccn4n3)cc2)CC1` [Example 169, N-Methyl-N-[3-({2-[4-(4-methyl-piperazin-1-yl)-phenylamino]-[1,2,4]triazolo[1,5-a]pyridin-8-ylamino}-methyl)-phenyl]-methanesulfonamide], the IC50 in assay [1] was 145 nM; in assay [2], 6500 nM.
For `CN1CCN(c2ccc(Nc3nc4c(Nc5ccccc5CN(C)S(C)(=O)=O)cccn4n3)cc2)CC1` [Example 171, N-Methyl-N-(2-{2-[4-(4-methyl-piperazin-1-yl)-phenylamino]-[1,2,4]triazolo[1,5-a]pyridin-8-ylamino}-benzyl)-methanesulfonamide], in that order: 70.8 nM and 999 nM.
As to `CN1CCN(c2cccc(Nc3nc4c(Nc5ccccc5CN(C)S(C)(=O)=O)cccn4n3)c2)CC1` [Example 172, N-Methyl-N-(2-{2-[3-(4-methyl-piperazin-1-yl)-phenylamino]-[1,2,4]triazolo[1,5-a]pyridin-8-ylamino}-benzyl)-methanesulfonamide], the IC50 in assay [1] is 453 nM; in assay [2], 3000 nM.
Regarding `CN(Cc1ccccc1Nc1cccn2nc(Nc3ccc(OCCN4CCCC4)cc3)nc12)S(C)(=O)=O` [Example 173, N-Methyl-N-(2-{2-[4-(2-pyrrolidin-1-yl-ethoxy)-phenylamino]-[1,2,4]triazolo[1,5-a]pyridin-8-ylamino}-benzyl)-methanesulfonamide], the IC50 in assay [1] was determined as 143 nM; in assay [2], 2000 nM.
Taken in the same sequence, the figures for `CN1CCC(c2ccc(Nc3nc4c(Nc5ccccc5CN(C)S(C)(=O)=O)cccn4n3)cc2)CC1` [Example 174, N-Methyl-N-(2-{2-[4-(1-methyl-piperidin-4-yl)-phenylamino]-[1,2,4]triazolo[1,5-a]pyridin-8-ylamino}-benzyl)-methanesulfonamide] were 111 nM and 10000 nM.
For `CN1CCN(c2ccc(Nc3nc4c(-c5cccc(CN(C)S(C)(=O)=O)c5)cccn4n3)cc2)CC1` [Example 175, N-Methyl-N-(3-{2-[4-(4-methyl-piperazin-1-yl)-phenylamino]-[1,2,4]triazolo[1,5-a]pyridin-8-yl}-benzyl)-methanesulfonamide], in that order: 7.95 nM and 3000 nM.
For `CN1CCN(c2cccc(Nc3nc4c(-c5cccc(CN(C)S(C)(=O)=O)c5)cccn4n3)c2)CC1` [Example 176, N-Methyl-N-(3-{2-[3-(4-methyl-piperazin-1-yl)-phenylamino]-[1,2,4]triazolo[1,5-a]pyridin-8-yl}-benzyl)-methanesulfonamide], in that order: 5.94 nM and 3000 nM.
For `CN(Cc1cccc(-c2cccn3nc(Nc4ccc(OCCN5CCCC5)cc4)nc23)c1)S(C)(=O)=O` [Example 177, N-Methyl-N-(3-{2-[4-(2-pyrrolidin-1-yl-ethoxy)-phenylamino]-[1,2,4]triazolo[1,5-a]pyridin-8-yl}-benzyl)-methanesulfonamide], the IC50 in assay [1] turned out to be 7.34 nM; in assay [2], 3000 nM.
For `CC(C)(C)OC(=O)N1CCN(c2cccc(Nc3nc4c(-c5ccc(S(C)(=O)=O)cc5)cccn4n3)c2)CC1` [Example 179, 4-{3-[8-(4-Methanesulfonyl-phenyl)-[1,2,4]triazolo[1,5-a]pyridin-2-ylamino]-phenyl}-piperazine-1-carboxylic acid tert-butyl ester], in that order: 3.72 nM and 10000 nM.
Taken in the same sequence, the figures for `CS(=O)(=O)c1ccc(-c2cccn3nc(Nc4cccc(N5CCNCC5)c4)nc23)cc1` [Example 181, [8-(4-Methanesulfonyl-phenyl)-[1,2,4]triazolo[1,5-a]pyridin-2-yl]-(3-piperazin-1-yl-phenyl)-amine] were 0.97 nM and 1130 nM.

One may read the IC50 as the point on the concentration scale where inhibition reaches its midpoint.
